Reference: patent publication US12251413B2, “Use of effective part extract of Monochasma savatieri in preparation of drug for treating inflammatory disease or tumor” (Harbin Kanglong Pharmaceutical Co., Ltd., priority 2022, dated 2025)

Test system: TNF-α
Experiment: Inhibition of TNF-α secretion by LPS-induced RAW264.7 macrophages (ELISA)
Assay type: cell-based
Conditions: Mus musculus, RAW264.7, LPS 1 μg/mL, 24 h (Table 1), read-out: TNF-α inhibition rate (%)
Description: This test example simulated the inflammatory response at a cellular level in vitro, that is, the inflammatory response of mouse peritoneal macrophages (RAW264.7) was induced by lipopolysaccharide (LPS) to produce models of the inflammatory factors, and an inhibitory effect of the effective part extract of Monochasma savatieri on the TNF-α secreted by cells was detected by ELISA, to evaluate an anti-inflammatory effect thereof.
Test reagents were: RAW264.7 cells; a DMEM medium, a 1640 medium (Invitrogen), fetal bovine serum (Gibco); LPS(Sigma); an ELISA kit (ebioscience), and a CCK8 reagent (Taosu, Beijing).
Test samples were: the B2-13, B2-15, B2-16, and B2-16-15 prepared in Example 1; a positive drug: dexamethasone.
Test method: • 1. Cell culture: the RAW264.7 cells were cultured in the 1640+10% FBS at 37° C. with 5% CO2, and the cells were passaged when showing logarithmic growth. When reaching 80% confluency, the cells were plated in a 96-well plate (density: 2×10^4 cells/well) at 100 μL/well, and then incubated at 37° C. with 5% CO2 for 12 h to 18 h. • 2. […]
Evaluation index: an inhibition rate of the inflammatory factor TNF-α. OD values were read at 450 nm and 570 nm, a standard curve was plotted, a concentration of TNF-α in the medium was calculated, and the inhibition rate and inhibitory activity IC50 value of the samples on the TNF-α produced by the cells were calculated. […]

## C[C@@H]1C[C@H]2[C@@H]3CCC4=CC(=O)C=C[C@]4(C)[C@@]3(F)[C@@H](O)C[C@]2(C)[C@@]1(O)C(=O)CO [Dexamethasone, dexamethasone]
  inhibition at 10 µM: 58.7%
